Biological target: human GPBAR1 receptor (Homo sapiens (Human), UniProt Q8TDU6)
Assay: functional cAMP assay in CHO-dhfr(minus) cells expressing human GPBAR1 receptors
Format: cell-based
Details: CHO-dhfr(minus) cells expressing human GPBAR1, 30 min at 30° C.
Summary of the method: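 Functional cAMP responses in a human GPBAR1-transfected CHO-dhfr- clone, picked using lithocholic acid as agonist, gave the EC50 values. Parallel testing in untransfected CHO cells served as a specificity control.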

human GPBAR1 receptor, sequence (Q8TDU6 whole entry): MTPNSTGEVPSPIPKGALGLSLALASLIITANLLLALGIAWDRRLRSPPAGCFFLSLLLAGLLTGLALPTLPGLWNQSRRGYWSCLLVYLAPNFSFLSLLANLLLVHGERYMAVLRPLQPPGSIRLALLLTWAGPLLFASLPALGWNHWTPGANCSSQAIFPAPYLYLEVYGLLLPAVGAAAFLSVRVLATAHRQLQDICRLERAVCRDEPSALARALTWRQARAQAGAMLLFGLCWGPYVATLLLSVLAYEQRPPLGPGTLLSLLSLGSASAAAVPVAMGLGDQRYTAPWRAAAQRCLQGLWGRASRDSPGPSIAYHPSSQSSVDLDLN

First: CCOC(=O)CCc1cc(C(=O)N(C)c2cnccc2-c2ccc(F)cc2OC)cc(C(F)(F)F)c1 [Example 266, 3-(3-{[4-(4-Fluoro-2-methoxy-phenyl)-pyridin-3-yl]-methyl-carbamoyl}-5-trifluoromethyl-phenyl)-propionic acid ethyl ester]
Second: COc1cc(F)ccc1-c1ccncc1N(C)C(=O)c1cc(C(F)(F)F)cc(S(C)(=O)=O)c1 [Example 138, N-[4-(4-Fluoro-2-methoxy-phenyl)-pyridin-3-yl]-3-methanesulfonyl-N-methyl-5-trifluoromethyl-benzamide]
The EC50 of the first is 4.2-fold higher: 177 nM for the first, 42 nM for the second.

Going from `COc1cc(F)ccc1-c1ccncc1N(C)C(=O)c1cc(C2CC2)cc(S(C)(=O)=O)c1` [Example 260, 3-Cyclopropyl-N-[4-(4-fluoro-2-methoxy-phenyl)-pyridin-3-yl]-5-methanesulfonyl-N-methyl-benzamide] to `COc1cc(F)ccc1-c1ccncc1N(C)C(=O)c1cc(Cl)cc(C2CC2)c1` [Example 238, 3-Chloro-5-cyclopropyl-N-[4-(4-fluoro-2-methoxy-phenyl)-pyridin-3-yl]-N-methyl-benzamide], the EC50 falls from 153 nM to 23 nM (6.7-fold).

Going from `COc1cc(F)ccc1-c1ccncc1N(CC1CCCO1)C(=O)c1cc(C(F)(F)F)cc(S(C)(=O)=O)c1` (single isomer, unassigned; (-)) [Example 233, (−)-N-[4-(4-Fluoro-2-methoxy-phenyl)-pyridin-3-yl]-3-methanesulfonyl-N-[1-(tetrahydro-furan-2-yl)methyl]-5-trifluoromethyl-benzamide] to `COc1cc(F)ccc1-c1ccncc1N(C[C@@H]1CCCOC1)C(=O)c1cc(C(F)(F)F)cc(S(C)(=O)=O)c1` [Example 299, (+)-N-[4-(4-Fluoro-2-methoxy-phenyl)-pyridin-3-yl]-3-methanesulfonyl-N-[1-(tetrahydro-pyran-3-yl)methyl]-5-trifluoromethyl-benzamide], the EC50 rises from 54 nM to 952 nM (18-fold).

First: Cc1ccccc1-c1ccncc1N(C)C(=O)c1cc(Cl)cc(Cl)n1 [Example 123, 4,6-Dichloro-pyridine-2-carboxylic acid methyl-(4-o-tolyl-pyridin-3-yl)-amide]
Second: CN(C(=O)c1ccc(Br)c(C(F)(F)F)c1)c1cnccc1-c1ccccc1Cl [Example 80, 4-Bromo-N-[4-(2-chloro-phenyl)-pyridin-3-yl]-N-methyl-3-trifluoromethyl-benzamide]
The EC50 of the first is 1.6-fold higher: 473 nM for the first, 299 nM for the second. The second is the more potent here.

`COC(=O)CN(C(=O)c1cc(C(F)(F)F)cc(C(F)(F)F)c1)c1cnccc1-c1cc(F)c(F)cc1OC` [Example 188, {(3,5-Bis-trifluoromethyl-benzoyl)-[4-(4,5-difluoro-2-methoxy-phenyl)-pyridin-3-yl]-amino}-acetic acid methyl ester] and `COC(=O)CN(C(=O)c1cc(C(F)(F)F)nc(C(F)(F)F)c1)c1cnccc1-c1cc(F)c(F)cc1OC` [Example 173, {(2,6-Bis-trifluoromethyl-pyridine-4-carbonyl)-[4-(4,5-difluoro-2-methoxy-phenyl)-pyridin-3-yl]-amino}-acetic acid methyl ester] are within 1.5-fold of each other in EC50: 70 nM for the first, 53 nM for the second.

Going from `COc1cc(F)ccc1-c1ccncc1N(C)C(=O)c1cc(C(F)(F)F)cc(S(=O)(=O)CCCC(=O)O)c1` [Example 247, 4-(3-{[4-(4-Fluoro-2-methoxy-phenyl)-pyridin-3-yl]-methyl-carbamoyl}-5-trifluoromethyl-benzenesulfonyl)-butyric acid] to `COc1cc(F)ccc1-c1ccncc1N(C)C(=O)c1cc(C(F)(F)F)cc(S(=O)(=O)CCN)c1` [Example 241, 3-(2-Amino-ethanesulfonyl)-N-[4-(4-fluoro-2-methoxy-phenyl)-pyridin-3-yl]-N-methyl-5-trifluoromethyl-benzamide], the EC50 falls from 413 nM to 105 nM (3.9-fold).

First: COc1cc(F)ccc1-c1ccncc1N(C)C(=O)c1cc(C(F)(F)F)nc(C(F)(F)F)c1 [Example 148, N-[4-(4-Fluoro-2-methoxy-phenyl)-pyridin-3-yl]-N-methyl-2,6-bis-trifluoro methyl-isonicotinamide]
Second: COc1cccc(-c2ccncc2N(C)C(=O)c2cc(C(F)(F)F)cc(C(F)(F)F)c2)c1F [Example 62, N-[4-(2-Fluoro-3-methoxy-phenyl)-pyridin-3-yl]-N-methyl-3,5-bis-trifluoromethyl-benzamide]
The EC50 of the first is 56-fold lower: 6 nM for the first, 337 nM for the second.

Compared with `COC(=O)CN(C(=O)c1cc(C(F)(F)F)nc(C(F)(F)F)c1)c1cnccc1-c1cccnc1OC` [Example 182, Methyl 2-(N-(2-methoxy-3,4′-bipyridin-3′-yl)-2,6-bis(trifluoromethyl)isonicotinamido)acetate], `COc1ncccc1-c1ccncc1N(CC(N)=O)C(=O)c1cc(C(F)(F)F)nc(C(F)(F)F)c1` [Example 183, N-(2-Amino-2-oxoethyl)-N-(2-methoxy-3,4′-bipyridin-3′-yl)-2,6-bis(trifluoromethyl)-isonicotinamide] is 7.6-fold higher in EC50: 27 nM for the first, 206 nM for the second.

First: COc1cc(F)ccc1-c1ccncc1N(C)C(=O)c1cc(C(F)(F)F)cc(S(=O)(=O)N2CC3(COC3)C2)c1 [Example 305, N-[4-(4-Fluoro-2-methoxy-phenyl)-pyridin-3-yl]-N-methyl-3-(2-oxa-6-aza-spiro[3.3]heptane-6-sulfonyl)-5-trifluoromethyl-benzamide]
Second: COc1cc(F)ccc1-c1ccncc1N(C)C(=O)c1cc(C(F)(F)F)cc(S(=O)(=O)C2CN(S(N)(=O)=O)C2)c1 [Example 292, N-[4-(4-Fluoro-2-methoxy-phenyl)-pyridin-3-yl]-N-methyl-3-(1-sulfamoyl-azetidine-3-sulfonyl)-5-trifluoromethyl-benzamide]
The EC50 of the first is 18-fold lower: 5 nM for the first, 88 nM for the second.

`O=C(c1cc(C(F)(F)F)cc(C(F)(F)F)c1)N(CCF)c1cnccc1-c1ccccc1Cl` [Example 110, N-[4-(2-Chloro-phenyl)-pyridin-3-yl]-N-(2-fluoro-ethyl)-3,5-bis-trifluoromethyl-benzamide] and `Cc1ccccc1-c1ccncc1N(CCC#N)C(=O)c1cc(C(F)(F)F)cc(C(F)(F)F)c1` [Example 165, N-(2-Cyano-ethyl)-N-(4-o-tolyl-pyridin-3-yl)-3,5-bis-trifluoromethyl-benzamide] are within 1.5-fold of each other in EC50: 152 nM for the first, 153 nM for the second.

First: COc1cc(F)ccc1-c1ccncc1N(C)C(=O)c1cc(SC2CNC2)cc(C(F)(F)F)c1 [Example 275, 3-(Azetidin-3-ylsulfanyl)-N-[4-(4-fluoro-2-methoxy-phenyl)-pyridin-3-yl]-N-methyl-5-trifluoromethyl-benzamide]
Second: COc1cc(F)ccc1-c1cc(C)ncc1N(C)C(=O)c1cc(SC2COC2)cc(C(F)(F)F)c1 [Example 310, N-[4-(4-Fluoro-2-methoxy-phenyl)-6-methyl-pyridin-3-yl]-N-methyl-3-(oxetan-3-ylsulfanyl)-5-trifluoromethyl-benzamide]
The EC50 of the first is 30-fold higher: 1230 nM for the first, 41 nM for the second. The second is the more potent here.

First: CN(C(=O)c1cc(C(F)(F)F)cc(C(F)(F)F)c1)c1cnccc1-c1ccccc1F [Example 25, N-[4-(2-Fluoro-phenyl)-pyridin-3-yl]-N-methyl-3,5-bis-trifluoromethyl-benzamide]
Second: COc1c(F)cccc1-c1ccncc1N(C)C(=O)c1cc(C(F)(F)F)cc(C(F)(F)F)c1 [Example 41, N-[4-(3-Fluoro-2-methoxy-phenyl)-pyridin-3-yl]-N-methyl-3,5-bis-trifluoromethyl-benzamide]
The EC50 of the first is 6.4-fold lower: 14 nM for the first, 90 nM for the second.

Compared with `CN(C(=O)c1cc(C(F)(F)F)cc(C(F)(F)F)c1)c1cnccc1-c1cc(F)ccc1F` [Example 61, N-[4-(2,5-Difluoro-phenyl)-pyridin-3-yl]-N-methyl-3,5-bis-trifluoromethyl-benzamide], `COc1ccc(F)c(-c2ccncc2N(C)C(=O)c2cc(C(F)(F)F)cc(C(F)(F)F)c2)c1` [Example 63, N-[4-(2-Fluoro-5-methoxy-phenyl)-pyridin-3-yl]-N-methyl-3,5-bis-trifluoromethyl-benzamide] is 3.1-fold lower in EC50: 72 nM for the first, 23 nM for the second. The second is the more potent here.

First: CS(=O)(=O)c1cc(C(=O)N(CC(N)=O)c2cnccc2-c2ccccc2F)cc(C(F)(F)F)c1 [Example 219, N-Carbamoylmethyl-N-[4-(2-fluoro-phenyl)-pyridin-3-yl]-3-methanesulfonyl-5-trifluoromethyl-benzamide]
Second: COc1ccc(F)cc1-c1ccncc1N(CC(N)=O)C(=O)c1cc(C(F)(F)F)cc(S(C)(=O)=O)c1 [Example 309, N-Carbamoylmethyl-N-[4-(5-fluoro-2-methoxy-phenyl)-pyridin-3-yl]-3-methanesulfonyl-5-trifluoromethyl-benzamide]
The EC50 of the first is 11-fold higher: 3030 nM for the first, 273 nM for the second.

Going from `CN(C(=O)c1cc(C(F)(F)F)cc(S(C)(=O)=O)c1)c1cnccc1-c1cccnc1OCC(F)(F)F` [Example 279, 3-Methanesulfonyl-N-methyl-N-[2-(2,2,2-trifluoro-ethoxy)-[3,4′]bipyridinyl-3′-yl]-5-trifluoromethyl-benzamide] to `COc1ncccc1-c1ccncc1N(CC(F)(F)F)C(=O)c1cc(C(F)(F)F)cc(S(=O)(=O)N(C)C)c1` [Example 170, 3-Dimethylsulfamoyl-N-(2-methoxy-[3,4′]bipyridinyl-3′-yl)-N-(2,2,2-trifluoro-ethyl)-5-trifluoromethyl-benzamide], the EC50 rises from 77 nM to 118 nM (1.5-fold).

First: Cc1ccc(F)cc1-c1cc(Cl)ncc1N(C)C(=O)c1cc(C(F)(F)F)cc(S(C)(=O)=O)c1 [Example 253, N-[6-Chloro-4-(5-fluoro-2-methyl-phenyl)-pyridin-3-yl]-3-methanesulfonyl-N-methyl-5-trifluoromethyl-benzamide]
Second: Cc1cc(-c2ccccc2C)c(N(C)C(=O)c2cc(C(F)(F)F)cc(C(F)(F)F)c2)cn1 [Example 127, N-Methyl-N-(6-methyl-4-o-tolyl-pyridin-3-yl)-3,5-bis-trifluoromethyl-benzamide]
The EC50 of the first is 41-fold higher: 3040 nM for the first, 75 nM for the second. The second is the more potent here.

Compared with `COc1cc(F)ccc1-c1ccncc1N(C)C(=O)c1cc(SCCNS(C)(=O)=O)cc(C(F)(F)F)c1` [Example 262, N-[4-(4-Fluoro-2-methoxy-phenyl)-pyridin-3-yl]-3-(2-methanesulfonylamino-ethylsulfanyl)-N-methyl-5-trifluoromethyl-benzamide], `COc1cc(C(=O)N(C)c2cnccc2-c2ccc(F)cc2OC)cc(Cl)n1` [Example 198, 2-Chloro-N-[4-(4-fluoro-2-methoxy-phenyl)-pyridin-3-yl]-6-methoxy-N-methyl-isonicotinamide] is 2.5-fold lower in EC50: 231 nM for the first, 92 nM for the second.

— patent publication US10385022B2, “3-amino-pyridines as GPBAR1 agonists” (HOFFMANN-LA ROCHE INC., priority 2011, dated 2019)
